Measured values reported in a melting point compilation (Tetko et al.; mined from patent text by program, amines drawn as free bases though some values may be those of a salt).

**Q.** For NC(=NO)c1nn(-c2c(Cl)cc(C(F)(F)F)cc2Cl)c(N)c1S(=O)C(F)(F)F (stereo unspecified), which melting point is on record?
**A.** 203 to 205 °C

**Q.** Which melting point does the source give for CCOC(=O)c1snc(-c2ccccc2)c1C(=O)OCC here?
**A.** 70 to 71.5 °C

**Q.** With COC[C@H]1CN(c2ccc(OCCC3(O)CCCCC3)cc2)C(=O)O1 as the molecule, how does the melting point read?
**A.** 87 °C

**Q.** For O=C(O)c1ccc(-c2nc(-c3ccc(C(F)(F)F)cc3)no2)cc1, which melting point is on record?
**A.** 293 to 294 °C

**Q.** With Clc1ccc(NN=Cc2cccnc2)cc1 as the molecule, how does the melting point read?
**A.** 186 °C

**Q.** For CC(=O)NC(=O)CSC(C)=O, which melting point is on record?
**A.** 140 to 142 °C

**Q.** With CCOC(=O)/C=C(/c1ccc(OCC)cc1)c1cc(Cl)cc(Cl)c1 as the molecule, how does the melting point read?
**A.** 104 to 106 °C

**Q.** With CC(C)(C)OC(=O)c1cc(-c2ccccc2)c(=O)n2ccc3ccsc3c12 as the molecule, how does the melting point read?
**A.** 155 to 157 °C

**Q.** With C=CCNc1nc(SC)nc2cc(OC)c(OC)cc12 as the molecule, how does the melting point read?
**A.** 122 to 124 °C

**Q.** For C[C@@H](N(CC(=O)O)C(=O)c1ccc(OCC(F)(F)F)cc1)[C@](O)(Cn1cncn1)c1ccc(F)cc1F (relative stereo), which melting point is on record?
**A.** 168 to 177 °C

**Q.** Which melting point does the source give for CN1C(=O)C(=O)C(c2ccc(Cl)cc2)Sc2ccccc21 (stereo unspecified) here?
**A.** 124 to 126 °C

**Q.** For CC(=O)OCSC1=CCC2C3CCC4=CC(=O)C=CC4(C)C3(F)C(O)CC12C (stereo unspecified), which melting point is on record?
**A.** 193 to 194 °C

**Q.** For CCCOc1ccc(Br)c(C(C)=O)c1, which melting point is on record?
**A.** 50 to 52 °C

**Q.** Which melting point does the source give for CCc1cccc2c(/C=C/C(=O)N3CCCCC3)cc(OC)c(O)c12 here?
**A.** 85 to 86 °C

**Q.** For Cc1ccc(C)c(C(C)Sc2cc(C)c3ccccc3n2)c1 (stereo unspecified), which melting point is on record?
**A.** 84 to 85 °C

**Q.** With CCC1(C)OC(c2ccc(S(N)(=O)=O)cc2)=C(c2ccc(OC)c(F)c2)C1=O (stereo unspecified) as the molecule, how does the melting point read?
**A.** 113 to 114 °C

**Q.** Which melting point does the source give for COCn1ncc2cc(-c3nnc(SCc4ccc(OC)c(C(F)(F)F)c4)o3)ccc21 here?
**A.** 158 to 159 °C

**Q.** Which melting point does the source give for COc1ccc2c(c1)-c1ncc(C(=O)O)c(=O)n1CC2 here?
**A.** 237 to 239 °C

**Q.** Which melting point does the source give for O=c1[nH]c2ccccc2c(=O)n1S(=O)(=O)c1ccc(Cl)cc1 here?
**A.** 214 to 215 °C

**Q.** Which melting point does the source give for CCC(C=CC(C)C1CCC2C3CCC4=CC(=O)CCC4(C)C3CCC12C)C(C)C (stereo unspecified) here?
**A.** 121 to 123 °C

**Q.** Which melting point does the source give for CCc1nn2c(N3CCN(C)CC3)cc(N3CCOCC3)nc2c1S(=O)(=O)c1ccccc1 here?
**A.** > 250 °C

**Q.** With CC(C)Oc1ccc(Nc2nc(=O)n(C(C)C)c(=O)n2Cc2ccc(Cl)cc2)cc1Cl as the molecule, how does the melting point read?
**A.** 167 °C

**Q.** Which melting point does the source give for CCc1cc(C(=O)c2ccccc2Cl)c(-n2c(C)nnc2CNC(=O)c2cc3ccccc3n2CC(=O)O)s1 here?
**A.** 208 to 210 °C

**Q.** For COc1ccccc1N1CCN(CCCCOc2ccc(-c3cn4ccccc4n3)cc2)CC1, which melting point is on record?
**A.** 144 to 145 °C

**Q.** Which melting point does the source give for COc1ccc(-c2cc3ccccc3s2)cc1 here?
**A.** 188 to 190 °C

**Q.** Which melting point does the source give for CCOC(=O)c1cc2c(C(F)(F)F)cc(C=O)cc2n1C here?
**A.** 140 to 141 °C

**Q.** With COc1ccc2oc(-c3nc4c(s3)NCCCC4)cc2c1 as the molecule, how does the melting point read?
**A.** 121 to 125 °C

**Q.** With COc1ccncc1NC(=O)c1c[nH]c2c1C(=O)CCC2 as the molecule, how does the melting point read?
**A.** 209 to 210 °C

**Q.** With CN(C)OC(=O)C(C)(c1ccc(OCc2ccc3ccccc3n2)cc1)C1CCCCC1 (stereo unspecified) as the molecule, how does the melting point read?
**A.** 98 to 99 °C

**Q.** For NCc1cccc(Nc2n[nH]c3ncnc(Nc4cccc(Cl)c4)c23)c1, which melting point is on record?
**A.** 212 to 214 °C

**Q.** For Cc1cc(F)ccc1N(C)C(=O)c1cccc(S(=O)(=O)N(C)c2ccc(Br)cc2)c1, which melting point is on record?
**A.** 104 to 105 °C

**Q.** For Cc1cc(C2=C(C=CC3CC(O)CC(=O)O3)C(C)(C)CC(N3CCCC3)C2)ccc1F (stereo unspecified), which melting point is on record?
**A.** 120 to 123 °C

**Q.** With COc1cc(OCC(=O)O)c2c3c(n(Cc4ccccc4)c2c1)CCCC3C(N)=O (stereo unspecified) as the molecule, how does the melting point read?
**A.** 251 to 254 °C

**Q.** With C[Si](C)(C)OC1(C#N)CCOc2ccc(Cl)cc21 (stereo unspecified) as the molecule, how does the melting point read?
**A.** 72 to 73 °C

**Q.** For O=S(=O)(c1ccccc1)n1c(Cc2cccc(-c3cc4ccccc4n3S(=O)(=O)c3ccccc3)c2)cc2ccccc21, which melting point is on record?
**A.** 76 to 78 °C

**Q.** For O[C@@H]1[C@H](O)[C@H](O)CO[C@H]1n1c(Br)nc2ccc(Cl)cc21, which melting point is on record?
**A.** 100 °C

**Q.** With COC(C)(C)CNC(=O)c1cccc(-c2cccc3cc(Cc4cc(F)cc(Cl)c4)sc23)c1 as the molecule, how does the melting point read?
**A.** 89 to 90 °C

**Q.** Which melting point does the source give for CC1(Cn2c(=O)oc3ccccc32)Cn2cc([N+](=O)[O-])nc2O1 (stereo unspecified) here?
**A.** 223 to 224 °C

**Q.** For CCCOc1ccc(S(=O)(=O)N(C)C)cc1C1=NC(=O)C2=NC=NC2=N1, which melting point is on record?
**A.** 268 to 269 °C

**Q.** With C=C(C)COc1ccc(Br)cc1CN(CC)c1ccc(-c2cc(O)n(C)n2)nn1 as the molecule, how does the melting point read?
**A.** 151 to 152 °C

**Q.** With Oc1ccccc1C=NCCN=Cc1ccccc1O as the molecule, how does the melting point read?
**A.** 126 °C

**Q.** For COC(=O)C=C1c2ccccc2C=C(OC)c2sccc21, which melting point is on record?
**A.** 124 to 125 °C

**Q.** With CCn1c(=O)c2c(nc(/C=C/c3ccc(OC(C)=O)cc3)n2C)n(CC)c1=O as the molecule, how does the melting point read?
**A.** 198 °C

**Q.** With CCOC(=O)CNc1nc(Cl)ccc1NC(=O)c1ccc(Cl)cc1 as the molecule, how does the melting point read?
**A.** 157 to 158 °C

**Q.** With Cc1cc(C2CCN(S(=O)(=O)C(C)(C)C(=O)NO)CC2)ccc1-c1cccc(OC[C@@H](O)CO)c1 as the molecule, how does the melting point read?
**A.** 152 to 154 °C

**Q.** With COc1ccc(N2CCN(c3c(C)c(C)c4c(c3C)C(O)(c3ccoc3)C(C)(C)O4)CC2)cc1 (stereo unspecified) as the molecule, how does the melting point read?
**A.** 148 to 149 °C

**Q.** Which melting point does the source give for CN(C)C(=S)N1C=CC=NC1N (stereo unspecified) here?
**A.** 134 to 136 °C

**Q.** Which melting point does the source give for CCCCSc1c2sc3ccccc3nc-2cc(C)c1=O here?
**A.** 97 °C

**Q.** With Cc1cn(-c2nccc3ccccc23)cc1C(=O)O as the molecule, how does the melting point read?
**A.** 245 °C

**Q.** For COc1ccc(Cn2c(N)c(Br)c(=O)[nH]c2=O)cc1, which melting point is on record?
**A.** 247 °C

**Q.** Which melting point does the source give for Cc1ccc(-c2cc3cc(-c4ccccc4)ccc3o2)cc1 here?
**A.** 156 to 158 °C

**Q.** With CC(C)(C)c1csc(-c2cc3cc(Cn4c(C(N)=O)cc5ccccc54)ccc3o2)n1 as the molecule, how does the melting point read?
**A.** 151 to 152 °C

**Q.** Which melting point does the source give for Oc1cccc(-c2cn3ccc4ccccc4c3n2)c1 here?
**A.** 201 to 202 °C

**Q.** For Clc1ccc(-c2coc3ccccc23)cc1, which melting point is on record?
**A.** 56 to 57 °C

**Q.** Which melting point does the source give for O=C(N[C@H](Cc1ccc(Cl)c(OC(F)(F)C(F)F)c1)[C@@H](O)c1ccc(F)cc1)c1ccc(F)c2ccccc12 (racemic) here?
**A.** 206 to 207 °C

**Q.** Which melting point does the source give for CN(CCCCOc1ccc(CC2SC(=O)NC2=O)cc1)c1nc2ccccc2o1 (stereo unspecified) here?
**A.** 112 °C

**Q.** For O=C1c2ccccc2C2(O)Oc3ccc([N+](=O)[O-])cc3C12O (stereo unspecified), which melting point is on record?
**A.** 206 to 207 °C

**Q.** With O=C1[C@H]2CCC[C@H]2N(C(=O)CBr)c2ccccc2N1CCCc1ccccc1 (relative stereo) as the molecule, how does the melting point read?
**A.** 130 to 132 °C

**Q.** For COc1ccc(-n2nc(C(=O)O)c3c2CCCC3)cc1, which melting point is on record?
**A.** 233 to 234 °C

**Q.** Which melting point does the source give for OCC(I)c1ccccc1 (stereo unspecified) here?
**A.** 71 to 72 °C

**Q.** With O=C(O)C=CC(=O)c1ccco1 as the molecule, how does the melting point read?
**A.** 153 to 155 °C

**Q.** For CC(C)(C)OC(=O)NCCCSc1ccncc1, which melting point is on record?
**A.** 72 to 74 °C

**Q.** With O=C1NCCc2ccc(OCCCCN3CCCN(c4cccc(Cl)c4Cl)CC3)cc21 as the molecule, how does the melting point read?
**A.** 86 to 88 °C

**Q.** Which melting point does the source give for CC(C)n1nc(-c2c(-c3ccccc3)nn3ccc(N4CCN(c5ccccn5)CC4)cc23)ccc1=O here?
**A.** 221 to 222 °C

**Q.** Which melting point does the source give for Cc1c(C)c2c(c(C)c1NC=O)CC(C)(CSc1nc3ccccc3s1)O2 (stereo unspecified) here?
**A.** 190 to 192 °C

**Q.** With CCCCNC(=S)Nc1ccccc1N1CCOCC1 as the molecule, how does the melting point read?
**A.** 105 °C

**Q.** For CCCOc1nc(C(F)(F)F)cc(=O)n1-c1cc(O)c(Cl)cc1F, which melting point is on record?
**A.** 122 to 123 °C

**Q.** With O=c1cc(NCCCN2CCN(c3cccc4c3OCCO4)CC2)cn[nH]1 as the molecule, how does the melting point read?
**A.** 158 to 160 °C

**Q.** For O=S(=O)(c1c[nH]cc1-c1ccc(Cl)cc1)C(F)(F)F, which melting point is on record?
**A.** 138 to 141 °C

**Q.** For Cc1c(C(N)=O)oc2c(C(=O)NCCCN3CCN(c4cc(Cl)ccc4OS(=O)(=O)C(F)(F)F)CC3)cccc2c1=O, which melting point is on record?
**A.** 150 to 156 °C

**Q.** For COCCC1CCN(c2ccc(C#N)c3ccccc23)CC1, which melting point is on record?
**A.** 95 to 96 °C
